What was measured:
hA2B AR [1] = target: T1, hA2B AR (Homo sapiens, UniProt P29275); experiment: cAMP assay in CHO cells expressing hA2B AR (stimulation of cAMP production); assay type: cell-based; conditions: for Emax at 1 µM: CHO, 1 µM compound, in comparison with NECA (1 µM = 100%), read-out: Efficacy hA2B (cAMP assay) (converted); for EC50: hA2B CHO cells, mean ± SEM of four assays
T1 construct: host or cells: CHO cells
T1 sequence (P29275 1-332): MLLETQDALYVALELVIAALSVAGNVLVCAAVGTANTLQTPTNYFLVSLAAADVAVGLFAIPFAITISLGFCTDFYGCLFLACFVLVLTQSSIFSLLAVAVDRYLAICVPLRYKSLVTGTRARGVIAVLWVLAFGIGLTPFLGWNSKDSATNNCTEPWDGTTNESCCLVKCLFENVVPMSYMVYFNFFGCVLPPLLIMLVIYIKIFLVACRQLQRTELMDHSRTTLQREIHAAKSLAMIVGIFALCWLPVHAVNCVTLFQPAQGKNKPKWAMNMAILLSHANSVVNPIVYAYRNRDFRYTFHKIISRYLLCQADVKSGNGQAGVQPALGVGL
Experimental: (§1) The amino-3,5-dicyanopyridines 1–21 were tested for their affinity at hA1, hA2A and hA3 ARs, stably transfected in Chinese Hamster Ovary (CHO) cells. Moreover, they were also studied as hA2B agonists by evaluating their stimulatory effect on cAMP production in CHO cells, stably expressing the hA2B AR. […] Due to their interesting pan profile, both compounds 1 and 5 were evaluated as AR agonists also at the hA2A and hA3 subtypes.
(§2) CHO cells transfected with hA1, hA2A, hA2B and hA3 ARs (Perkin Elmer, Boston, MA, USA) were grown adherently and maintained in Dulbecco’s modified Eagle’s medium with nutrient mixture F12, containing 10% fetal calf serum, penicillin (100 U/mL), streptomycin (100 μg/mL), L-glutamine (2 mM) and geneticine (G418; 0.2 mg/mL), at 37 °C, in 5% CO2/95% air, until their use in cAMP assays. For membrane preparation, the culture medium was removed, and the cells were washed with phosphate-buffered saline and scraped off T75 flasks in ice-cold hypotonic buffer (5 mM Tris HCl, 1 mM EDTA, pH 7.4). The cell suspension was homogenized with a Polytron, centrifuged for 30 min at 40,000× g, at 4 °C, and the resulting membrane pellet was used for competition binding experiments.
(§3) CHO cells transfected with hAR subtypes were washed with phosphate-buffered saline, detached with tripsine and centrifuged for 10 min at 200× g. Cells were seeded in a 96-well white half-area microplate (Perkin Elmer, Boston, USA) in a stimulation buffer composed of Hank Balanced Salt Solution, 5 mM HEPES, 0.5 mM Ro 20–1724, 0.1% BSA. The cAMP levels were then quantified by using the AlphaScreen cAMP Detection Kit (Perkin Elmer, Boston, MA, USA), following the manufacturer’s instructions. At the end of the experiments, the plates were read with a Perkin Elmer EnSight Multimode Plate Reader.

hA3AR = target: T2, hA3AR (Homo sapiens, UniProt P0DMS8); experiment: Competition binding, [125I]AB-MECA, hA3 CHO cell membranes; conditions: for Ki: displacement of [125I]AB-MECA, hA3 CHO cells, mean ± SEM of four assays; for inhibition at 1 µM: 1 µM compound, [125I]AB-MECA binding, read-out: I% hA3 (percentage of inhibition)
T2 construct: host or cells: CHO cells
T2 sequence (P0DMS8 1-318): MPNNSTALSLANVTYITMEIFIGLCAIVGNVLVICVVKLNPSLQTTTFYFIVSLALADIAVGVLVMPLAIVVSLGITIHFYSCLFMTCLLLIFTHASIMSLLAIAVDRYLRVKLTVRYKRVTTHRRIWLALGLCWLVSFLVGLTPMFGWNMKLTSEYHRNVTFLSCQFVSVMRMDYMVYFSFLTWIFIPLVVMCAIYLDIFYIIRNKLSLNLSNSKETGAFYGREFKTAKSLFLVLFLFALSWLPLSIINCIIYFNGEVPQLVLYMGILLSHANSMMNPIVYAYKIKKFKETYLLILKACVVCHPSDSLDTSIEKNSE
Experimental: as §2
(§4) All synthesized compounds were tested for their affinity to hA1, hA2A and hA3 ARs. Competition experiments to hA1AR were carried out by incubating 1 nM [^3H]-8-cyclopentyl-1,3-dipropylxanthine ([^3H]-DPCPX) with membrane suspension (50 μg of protein/100 μL) and different concentrations of the examined compounds at 25 °C for 90 min in 50 mM Tris HCl, pH 7.4. Non-specific binding was defined as binding in the presence of 1 μM DPCPX and was always <10% of the total binding. Inhibition experiments to hA2A ARs were performed by incubating the radioligand [^3H]-4-(-2-[7-amino-2-{2-furyl}{1,2,4}triazolo{2,3-a} {1,3,5}triazin-5-yl-amino]ethyl)phenol ([^3H]-ZM241385) (1 nM) with the membrane suspension (50 μg of protein/100 μL) and different concentrations of the examined compounds for 60 min, at 4 °C, in 50 mM Tris HCl (pH 7.4), 10 mM MgCl2. Non-specific binding was determined in the presence of ZM241385 (1 μM) and was about 20% of the total binding. Competition binding experiments to A3ARs were carried out by incubating the membrane suspension (50 μg of protein/100 μL) with 0.5 nM [^125I]-N6-(4-aminobenzyl)-N-methylcarboxamidoadenosine ([^125I]-ABMECA) in the presence of different concentrations of the examined compounds for an incubation time of 120 min, at 4 °C, in 50 mM Tris HCl (pH 7.4), 10 mM MgCl2, 1 mM EDTA. Non-specific binding was defined as binding in the presence of 1 μM ABMECA and was always <10% of the total binding. Bound and free radioactivity were separated by filtering the assay mixture through Whatman GF/B glass-fiber filters, using a Brandel cell harvester (Brandel Instruments, Unterföhring, Germany). The filter bound radioactivity was counted by Packard Tri Carb 2810 TR scintillation counter (Perkin Elmer).
(§5) The protein concentration was determined according to a Bio-Rad method, with bovine albumin as a standard reference. Inhibitory binding constant (Ki) values were calculated from those of IC50 according to the Cheng–Prusoff equation, Ki = IC50/(1 + [C*]/KD*), where [C*] is the concentration of the radioligand, and KD* its dissociation constant. Ki and IC50 values were calculated by non-linear regression analysis, using the equation for a sigmoid concentration-response curve (Graph-PAD Prism, San Diego, CA, USA).

hA2AAR = target: T3, hA2AAR (Homo sapiens, UniProt P29274); experiment: Competition binding, [3H]ZM241385, hA2A CHO cell membranes; conditions: for Ki: displacement of [3H]ZM241385, hA2A CHO cells, mean ± SEM of four assays
T3 construct: host or cells: CHO cells
Experimental: as §2, §4, §5

hA1AR [2] = target: T4, hA1AR (Homo sapiens, UniProt P30542); experiment: Competition binding, [3H]DPCPX, hA1 CHO cell membranes; conditions: displacement of [3H]DPCPX, hA1 CHO cells; mean ± SEM of four assays
T4 construct: host or cells: CHO cells
T4 sequence (P30542 1-326): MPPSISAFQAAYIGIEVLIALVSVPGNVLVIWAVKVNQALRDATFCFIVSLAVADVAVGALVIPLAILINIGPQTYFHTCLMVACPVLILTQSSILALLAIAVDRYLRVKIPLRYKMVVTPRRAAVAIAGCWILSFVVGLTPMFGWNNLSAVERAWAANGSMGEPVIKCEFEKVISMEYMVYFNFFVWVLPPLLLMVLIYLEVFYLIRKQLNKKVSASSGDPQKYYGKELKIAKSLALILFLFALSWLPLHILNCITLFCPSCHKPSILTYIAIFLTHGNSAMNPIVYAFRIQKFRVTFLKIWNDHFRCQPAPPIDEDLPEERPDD
Experimental: as §2, §4, §5

hA1AR [3] = target: T4, hA1AR; experiment: Modulation of Forskolin-stimulated cAMP levels in hA1 CHO cells; assay type: cell-based; conditions: for IC50: footnote d, vs CCPA 10 nM; for hA1AR Efficacy: normalized: CCPA full agonist = 100%, DPCPX inverse agonist = −100%; for hA1AR Profile: pharmacological profile in cAMP assay
Experimental: as §1, §2, §3

hA2B AR [4] = target: T1, hA2B AR; parameters: method as in PMID 15239649; conditions: in comparison with NECA; ref [2]; cited from earlier work

T3 sequence (P29274 whole entry): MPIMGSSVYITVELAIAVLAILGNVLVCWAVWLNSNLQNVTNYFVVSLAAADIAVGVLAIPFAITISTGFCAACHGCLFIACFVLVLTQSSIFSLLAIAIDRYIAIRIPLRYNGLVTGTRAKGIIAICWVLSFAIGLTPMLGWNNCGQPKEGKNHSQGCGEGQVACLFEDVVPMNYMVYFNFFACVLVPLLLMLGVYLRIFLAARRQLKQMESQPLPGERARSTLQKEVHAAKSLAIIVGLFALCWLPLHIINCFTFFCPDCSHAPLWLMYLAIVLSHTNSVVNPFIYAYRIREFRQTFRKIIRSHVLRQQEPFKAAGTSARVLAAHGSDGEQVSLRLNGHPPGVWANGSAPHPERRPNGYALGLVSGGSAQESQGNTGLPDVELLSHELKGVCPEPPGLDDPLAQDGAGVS

Emax at 1 µM (hA2B AR [1]) [%]	EC50 (hA2B AR [1]) [nM]	Ki (hA3AR) [nM]	melting point	Ki (hA2AAR) [nM]	Ki (hA1AR [2]) [nM]	IC50 (hA1AR [3]) [nM]	hA1AR Efficacy (hA1AR [3]) [%]	hA1AR Profile (hA1AR [3])	inhibition at 1 µM (hA3AR) [%]	EC50 (hA1AR [3]; footnote c, mean ± SEM of four experiments, read-out: hA1AR EC50 or IC50, potency to modulate Forskolin-stimulated cAMP levels) [nM]	inhibition at 1 µM (hA2AAR; 1 µM compound, [3H]ZM241385 binding, read-out: I% hA2A (percentage of inhibition)) [%]	Structure (SMILES)	Efficacy hA2B (cAMP assay) (hA2B AR [4]) [%]
7	> 1000	798 ± 72	232 to 233 °C	377 ± 32	2.71 ± 0.18	–	–	–	–	–	–	COc1ccc(-c2c(C#N)c(N)nc(SCc3ncc[nH]3)c2C#N)cn1 [Compound 9, 2′-Amino-6′-[(1H-imidazol-2-ylmethyl)sulfanyl]-6-methoxy-3,4′-bipyridine-3′,5′-dicarbonitrile]	–
4	> 1000	849 ± 74	147 to 148 °C	442 ± 37	51 ± 4	125 ± 11	0.82 ± 0.07	Antagonist	–	–	–	Cl.N#Cc1c(N)nc(SCc2cnc[nH]2)c(C#N)c1-c1ccco1 [Compound 11, 2-Amino-4-(furan-2-yl)-6-[(1H-imidazol-5-ylmethyl)sulfanyl]pyridine-3,5-dicarbonitrile hydrochloride]	–
3	> 1000	–	265 to 266 °C	157 ± 14	315 ± 28	768 ± 67	1.31 ± 0.11	Antagonist	16	–	–	N#Cc1c(N)nc(NCc2ncc[nH]2)c(C#N)c1-c1ccco1 [Compound 12, 2-Amino-4-(furan-2-yl)-6-[(1H-imidazol-2-ylmethyl)amino]pyridine-3,5-dicarbonitrile]	–
9	> 1000	–	242 °C (dec.)	125 ± 10	174 ± 14	–	–	–	6	–	–	N#Cc1c(N)nc(NCCc2c[nH]cn2)c(C#N)c1-c1ccco1 [Compound 13, 2-Amino-4-(furan-2-yl)-6-{[2-(1H-imidazol-4-yl)ethyl]amino}pyridine-3,5-dicarbonitrile]	–
1	> 1000	758 ± 66	269 to 270 °C	225 ± 18	378 ± 26	–	–	–	–	–	–	N#Cc1c(N)nc(SCC(=O)NCc2cnc[nH]2)c(C#N)c1-c1ccco1 [Compound 15, 2-{[6-Amino-3,5-dicyano-4-(furan-2-yl)pyridin-2-yl]sulfanyl}-N-(1H-imidazol-5-ylmethyl)acetamide]	–
1	> 1000	–	223 to 226 °C	138 ± 11	30 ± 3	–	−43 ± 4	Inverse Agonist	30	59 ± 4	–	N#Cc1c(N)nc(SCC(=O)NCCc2cnc[nH]2)c(C#N)c1-c1ccco1 [Compound 16, 2-{[6-Amino-3,5-dicyano-4-(furan-2-yl)pyridin-2-yl]sulfanyl}-N-[2-(1H-imidazol-5-yl)ethyl]acetamide]	–
2	> 1000	279 ± 21	221 to 222 °C	138 ± 11	393 ± 32	–	–	–	–	–	–	N#Cc1c(NC2CCCC2)nc(SCc2ncc[nH]2)c(C#N)c1-c1ccco1 [Compound 18]	–
13	> 1000	–	241 to 242 °C	–	292 ± 26	–	–	–	18	–	1	N#Cc1c(NC2CC2)nc(SCc2ncc[nH]2)c(C#N)c1-c1ccco1 [Compound 19]	–
8	> 1000	118 ± 11	232 to 234 °C	89 ± 7	41 ± 3	–	–	–	–	–	–	N#Cc1c(SCc2ncc[nH]2)nc(N2CCCC2)c(C#N)c1-c1ccco1 [Compound 20]	–
–	–	–	–	–	–	–	–	–	–	–	–	N#Cc1c(N)nc(SCc2ncc[nH]2)c(C#N)c1-c1ccccc1 [LUF5833, 2-amino-6-[(1H-imidazol-2-ylmethyl)sulfanyl]-4-phenylpyridine-3,5-dicarbonitrile]	81

Source: PMC9024521, “4-Heteroaryl Substituted Amino-3,5-Dicyanopyridines as New Adenosine Receptor Ligands: Novel Insights on Structure-Activity Relationships and Perspectives” (Pharmaceuticals, 2022)
